The text below walks through data of patent US10548935B2, “Composition and method for preventing, reducing, alleviating or treating idiopathic vomiting” (Mars, Incorporated, priority 2013, dated 2020).

The target in one series is T1, h5HT3A receptor (Homo sapiens, UniProt P46098).
T1 construct: expressed in transfected cells
T1 sequence (P46098 24-478): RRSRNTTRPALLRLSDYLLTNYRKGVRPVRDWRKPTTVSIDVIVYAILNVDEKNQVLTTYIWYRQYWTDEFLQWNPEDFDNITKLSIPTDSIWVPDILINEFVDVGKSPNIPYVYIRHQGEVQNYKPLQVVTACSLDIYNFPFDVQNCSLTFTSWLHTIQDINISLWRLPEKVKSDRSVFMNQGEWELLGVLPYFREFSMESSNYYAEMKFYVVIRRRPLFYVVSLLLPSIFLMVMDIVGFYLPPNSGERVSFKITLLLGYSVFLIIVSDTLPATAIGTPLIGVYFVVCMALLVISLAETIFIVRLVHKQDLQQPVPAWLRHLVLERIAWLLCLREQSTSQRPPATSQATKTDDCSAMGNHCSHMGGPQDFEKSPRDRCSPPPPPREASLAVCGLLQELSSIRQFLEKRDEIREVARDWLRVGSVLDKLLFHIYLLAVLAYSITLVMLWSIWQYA
As to the kind of experiment: Assays for screening 5-HT3a receptor inhibitors (FLIPR calcium assay or aequorin-assisted serotonin receptor assay; dosage response curves). Format: cell-based. The text has this:
Various known high through-put screening assays can be used to determine the inhibitory effects of a material on the 5-HT3a receptors.
Due to activation of 5HT3 receptor following calcium and sodium influx and the subsequent rapid intracellular calcium and sodium increase, a calcium indicator (e.g., Fluo-4 AM) or a sodium dye can therefore be readily used to detect influx Ca^+2 or Na^+ signal using the Flourometric Imaging Plate Reader (FLIPR) assay to identify agonists or antagonists of 5-HT3a receptors.
The 5-HT3a FLIPR assay can specifically be conducted by the following steps. First, […] (human embryonic kidney) cells stably expressed with h5HT3A receptor are grown in 16-18 ml growth medium in a 75 cm^2 flask for 2-3 days at 37° C. in a mammalian cell culture incubator with 5% CO2 and 90% humidity. The growth medium may contain, for example, DMEM/F12 (1:1, Invitrogen 11039) supplemented with 10% FBS (fetal bovine serum), 100 μg/ml Antibiotic/Antimycotic, and 150 ug/ml G418. The cell medium is then transferred to a 50 ml tube, and the cells are washed with 10 ml PBS. Subsequently, 2 ml of 0.05% Trypsin-EDTA is added to detach cells, and the above cell medium is added back to flask to inactivate trypsin. Next, the cells are transferred back to the above 50 ml tube, which is centrifuged at 850 rpm for 3 minutes to remove medium. The cells obtained from centrifugation are then re-suspended with growth medium at 1-1.5 ml per flask cells. One vial of Fluo-4 AM (calcium indicator, 50 ug) is subsequently dissolved with 20 ul of Pluronic F-127, and 10 ul of Fluo-4 AM solution per flask cells is added (1 vial of Fluo-4 AM solution, 20 ul, is good for 2 flask of cells). The cells are then stained with Fluo-4 AM for 30 min at room temperature with gently shaking on a shaker, followed by addition of 45 ml of the assay buffer [HBSS with CaCl2 and MgCl2 (Invitrogen 14025), 20 mM HEPES, pH7.2] to wash cells once. Centrifugation is carried out once more at 850 rpm for 3 minutes to remove assay buffer. The resulting cell pellet is again re-suspended in Assay buffer (per flask cells with 18-20 ml assay buffer). Ninety microliters of cells (50K cells/well) is loaded in the 96-well plates that are pre-loaded with the compounds to be tested (10 ul of 1 mM test materials, the final concentration of the test materials will be 100 uM). The plates are placed at room temperature for 15-30 min in dark and then transferred to FLIPR-384 instrument (Molecular Devices). […] The calcium signal of the test plates is finally recorded by the FLIPR program. The average and standard deviations are calculated using Excel, and the background (buffer) is subtracted. The percentage (%) inhibition is then calculated as
[formula] A test material will be considered as having an inhibitory effect against the 5-HT3a receptor if the percentage inhibition calculated is greater than 40%.
Aequorin is a photo-protein originating from the Jellyfish Aequorea Victoria. It is initially translated as an apo-enzyme requiring the hydrophobic group coelenterazine to initiate the conversion to aequorin. Upon binding of calcium, the coelenterazine is oxidized by aequorin into coelenteramide (BFP) resulting in the emission of blue light and CO2. Therefore, it is particularly useful for visualizing or detecting influx Ca^+2 signal.
After 18-24 h of culture, the cells are detached gently by flushing with their cell culture medium. Washing with an additional 10 mLs of cell culture media will ensure that optimum number of cells is captured. The cells are then centrifuged at 150×g, counted and re-suspended at 1×10^6 cells/mL in BSA medium [DMEM/Ham's F12 (with 15 mM HEPES, L-glutamine, without phenol red) culture medium (Invitrogen, Cat. No. 11039-021)+10% protease-free BSA (Sigma Aldrich, Cat. No. A9205) in H2O with a final BSA concentration of 0.1%] in a Falcon tube. Coelenterazine is added at a final concentration of 5 μM in assay medium.

The next series addresses T2, NK-1 receptor (Homo sapiens, UniProt P25103).
T2 construct: host or cells: U2OS (Tango TACR1-bla)
As to the kind of experiment: Tango GPCR cell-based assay, TACR1-bla U2OS cells, NK-1 receptor inhibitors. Conditions: 1 nM SAR9 Substance P agonist. Here is the method: Various known high through-put screening assays can also be used to determine the inhibitory effects of a material on the NK-1 receptors.
One exemplary assay is the Tango™ G-Protein Coupled Receptors (GPCR) cell-based assays by Invitrogen. First, TACR1-bla U2OS cells (from Invitrogen) are cultured in McCoy's medium. The cultured cells are then plated in DMEM into 96-well plates (15,125 cells/well in 90 uL/well). After 16-24 hours, the cells are treated with test materials or positive control antagonist (which is 100 nM Aprepitant) and then incubated for 30-60 minutes at 37° C. in 5% CO2. Subsequently, the cells are treated with 1 nM SAR9 Substance P agonist and incubated again for 5 hours at 37° C. in 5% CO2. The plates are removed from the incubator and equilibrated at room temperature for 15 minutes. During the equilibration step, the LiveBlazer substrate detection solution (from Invitrogen) is prepared. Six times of substrate mixture is added to each well, followed by incubating the plates in the dark at room temp for 2 hours. The plates are read by the Envision microplate reader in 2 channels using the “Geneblazer 451” protocol, which include a blue channel (Excitement at 405 and Emission at 460) and a green channel (Excitement at 405 and Emission at 535).
FIGS. 45-70 show the NK-1 dosage response curves of compounds described hereinabove with high NK-1 inhibitory effect.

T2 sequence (P25103 whole entry): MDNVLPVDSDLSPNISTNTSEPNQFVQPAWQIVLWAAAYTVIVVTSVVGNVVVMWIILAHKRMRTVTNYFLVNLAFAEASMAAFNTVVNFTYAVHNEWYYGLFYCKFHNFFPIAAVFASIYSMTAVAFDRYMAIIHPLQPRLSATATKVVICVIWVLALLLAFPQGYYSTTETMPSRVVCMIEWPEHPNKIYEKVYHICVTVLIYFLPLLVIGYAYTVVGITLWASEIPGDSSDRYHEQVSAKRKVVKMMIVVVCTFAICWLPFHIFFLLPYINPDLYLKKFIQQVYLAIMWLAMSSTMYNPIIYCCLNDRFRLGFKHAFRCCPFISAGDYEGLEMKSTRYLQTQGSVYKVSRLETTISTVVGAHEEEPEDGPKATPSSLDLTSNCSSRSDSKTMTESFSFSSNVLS

Turning to `CCCCCCCCCCCCCCCC(=O)OC(CC(=O)O)C[N+](C)(C)C.[Cl-]` (racemic) [DL-palmitoylcarnitine chloride], the “5-HT3a receptor inhibitory effect” value on h5HT3A receptor was “surprisingly high”. Besides, in the series “Cell toxicity”, the cell toxicity entry was “little or no”. At NK-1 receptor, the “NK-1 receptor inhibitory effect” value was “surprisingly high”.
Consider `O=C(/C=C/c1ccccc1O)c1ccc(O)cc1O` [2,2′,4′-trihydroxy-chalcone], for which the cell toxicity result in “Cell toxicity” is given as “little or no”. For the same compound, the “NK-1 receptor inhibitory effect” value at NK-1 receptor is listed as “surprisingly high”.
In the same order, the values of `c1ccc2c(Cc3c[nH]c4ccccc34)c[nH]c2c1` [3,3′-diindolylmethane] are “little or no” and “surprisingly high”.
In the case of `O=c1c(O)c(-c2ccccc2)oc2ccc(O)cc12` [3,6-Dihydroxyflavone], the “5-HT3a receptor inhibitory effect” value on h5HT3A receptor is “surprisingly high”. In addition, the cell toxicity result in the series “Cell toxicity” is given as “little or no”. Also, at NK-1 receptor, the “NK-1 receptor inhibitory effect” value was “surprisingly high”.
For the compound `O=C(/C=C/c1ccc(O)cc1)c1ccccc1` [4-Hydroxychalcone], the “5-HT3a receptor inhibitory effect” value at h5HT3A receptor was “surprisingly high”. Also, the cell toxicity result in the series “Cell toxicity” is “little or no”. The “NK-1 receptor inhibitory effect” value on NK-1 receptor is “surprisingly high”.
On to `CC1(C)[C@@H](O)CC[C@]2(C)[C@H]3C(=O)C=C4[C@@H]5C[C@@](C)(C(=O)O)CC[C@]5(C)CC[C@@]4(C)[C@]3(C)CC[C@@H]12` [18-Beta-glycyrrhetic acid], for which the “5-HT3a receptor inhibitory effect” value at h5HT3A receptor was “surprisingly high”. The cell toxicity entry in the series “Cell toxicity” is on record as “little or no”. On NK-1 receptor, the “NK-1 receptor inhibitory effect” value is given as “surprisingly high”.
Take `O=c1cc(-c2ccc(O)cc2)oc2cc(O)cc(O)c12` [Apigenin]: the cell toxicity result in the series “Cell toxicity” is on record as “little or no”. Besides, on NK-1 receptor, the “NK-1 receptor inhibitory effect” value is recorded as “surprisingly high”.
As for `C[C@H]1[C@H](C)CC[C@]2(C(=O)O)CC[C@]3(C)C(=CC[C@@H]4[C@@]5(C)C[C@@H](O)[C@H](O)[C@@](C)(CO)[C@@H]5CC[C@]43C)[C@H]12` [Asiatic acid], the “5-HT3a receptor inhibitory effect” value at h5HT3A receptor is recorded as “surprisingly high”. In “Cell toxicity”, the cell toxicity result is recorded as “little or no”. Further, on NK-1 receptor, the “NK-1 receptor inhibitory effect” value is reported as “surprisingly high”.
With `O=C(/C=C/c1ccccc1)c1ccccc1` [Chalcone], the cell toxicity result in the series “Cell toxicity” is on record as “little or no”. The “NK-1 receptor inhibitory effect” value at NK-1 receptor is listed as “surprisingly high”.
Take `COc1cc(/C=C/C(=O)CC(=O)/C=C/c2ccc(O)c(OC)c2)ccc1O` [Curcumin]: on h5HT3A receptor, the “5-HT3a receptor inhibitory effect” value is recorded as “surprisingly high”. On NK-1 receptor, the “NK-1 receptor inhibitory effect” value is “surprisingly high”.
Consider `O=c1c(-c2ccc(O)cc2)coc2cc(O)cc(O)c12` [Genistein], for which the cell toxicity result in “Cell toxicity” is on record as “little or no”. For the same compound, on NK-1 receptor, the “NK-1 receptor inhibitory effect” value was “surprisingly high”.
As to `O=c1cc(-c2ccc(O)c(O)c2)oc2cc(O)cc(O)c12` [Luteolin], the “5-HT3a receptor inhibitory effect” value at h5HT3A receptor is recorded as “surprisingly high”. In addition, in the series “Cell toxicity”, the cell toxicity entry was “little or no”. For the same compound, the “NK-1 receptor inhibitory effect” value on NK-1 receptor is “surprisingly high”.
For the compound `CC1=CC(=O)c2ccccc2C1=O` [Menadione], the cell toxicity entry in the series “Cell toxicity” is recorded as “little or no”. In addition, the “NK-1 receptor inhibitory effect” value on NK-1 receptor is on record as “surprisingly high”.
Taken in the same sequence, the figures for `CCCCCCCCCCCCCC[C@@H](O)[C@@H](O)[C@@H](N)CO` [Phytosphingosine] were “little or no” and “surprisingly high”.
For `Oc1ccc(C=Cc2cc(O)cc(O)c2)cc1` [Resveratrol], the “5-HT3a receptor inhibitory effect” value at h5HT3A receptor is on record as “surprisingly high”. On NK-1 receptor, the “NK-1 receptor inhibitory effect” value is given as “surprisingly high”.
On to `CC/C=C/C=C/C=O` [Trans,trans-2,4-heptadienal], for which the cell toxicity entry in “Cell toxicity” is “little or no”. Also, on NK-1 receptor, the “NK-1 receptor inhibitory effect” value is reported as “surprisingly high”.
Taken in the same sequence, the figures for `CCCC/C=C/C=C/C=O` [Trans,trans-2,4-nonadienal] were “little or no” and “surprisingly high”.
Consider `CC/C=C\CC/C=C/CO` [Trans-2,cis-6-nonadienol], for which the cell toxicity entry in the series “Cell toxicity” is on record as “little or no”. Also, on NK-1 receptor, the “NK-1 receptor inhibitory effect” value is given as “surprisingly high”.
Taken in the same sequence, the figures for `COc1ccc(/C=C/C=O)cc1` [Trans-4-methoxycinnamaldehyde] were “little or no” and “surprisingly high”.
With `COC1=C(OC)C(=O)C(C)=CC1=O` [Ubiquinone-O], the “5-HT3a receptor inhibitory effect” value at h5HT3A receptor is on record as “surprisingly high”. Also, the cell toxicity entry in the series “Cell toxicity” is given as “little or no”. In addition, the “NK-1 receptor inhibitory effect” value at NK-1 receptor is listed as “surprisingly high”.
